# Measured values taken from US9655899B2, “Compositions and methods for treating cancer” (Merck Sharp & Dohme Corp., priority 2012, dated 2017).
# Read-outs that look alike come from different tables or passages of the source.
# What was measured:
# [1] = tested on: KNS62; test: PKMYT1 siRNA knockdown proliferation assay (ViaLight, 72 hours); assay type: cell-based, human; details: for dose response curves in control (CT) versus PKMYT1 siRNA transfected cells / EC50: 72 hours; for EC50: Homo sapiens, KNS-62, 72 h, n=2, read-out: anti-proliferative EC50
# Method: (§1) For the knockdown studies, NCI-H460 and KNS62, two non-small cell lung cancer cell lines, American Type Culture Collection, Manassas, Va., were transfected with siRNA pools (SMARTpool, Dharmacon, Thermo Fisher Scientific, Waltham, Mass.) with either non-targeting control or PKMYT1 sequences. […] To approximate cell content, ViaLight (Lonza, Basel, Switzerland) was used according to manufacturer's protocol. Samples were run in triplicate and growth was calculated by determining the percentage of the control raw value for each treatment.
# [2] = tested on: NCI-H460; test: as above; assay type: cell-based, human; details: for dose response curves in control (CT) versus PKMYT1 siRNA transfected cells / EC50: 72 hours; for EC50: Homo sapiens, NCI-H460, 72 h, n=3, read-out: anti-proliferative EC50
# Method: as §1
# [3] = tested on: LoVo cells; test: Flow cytometry for mitotic marker pHH3; assay type: cell-based, human; details: EC90 concentration; 24 hours
# Method: (§2) To detect DNA double strand breaks, cells were stained with a FITC-conjugated anti-γH2AX (S139) antibody (kit 17-344, Millipore, Billerica, Mass.) after having been fixed overnight in ice-cold 70% ethanol Propidium iodide (PI)/RNase solution (BD Biosciences, Franklin Lakes, N.J.) was used to detect total DNA content. For studies interrogating premature mitosis, an anti-pHH3-Alexa 647 antibody (BD Biosciences 558217) was added.
# [4] = tested on: A2058 cells; test: Flow cytometry for mitotic marker pHH3; assay type: cell-based, human; details: EC90 concentration; 24 hours
# Method: as §2
# [5] = tested on: HT-29 cells; test: Flow cytometry for mitotic marker pHH3; assay type: cell-based, human; details: EC90 concentration; 24 hours
# Method: as §2
# [6] = tested on: LoVo cells; test: Flow cytometry for γH2AX at EC90; assay type: cell-based, human; details: EC90 concentration; 24 hours
# Method: as §2
# [7] = tested on: A2058 cells; test: Flow cytometry for γH2AX at EC90; assay type: cell-based, human; details: EC90 concentration; 24 hours
# Method: as §2
# [8] = tested on: HT-29 cells; test: Flow cytometry for γH2AX at EC90; assay type: cell-based, human; details: EC90 concentration; 24 hours
# Method: as §2
# [9] = tested on: ES-2 cells; test: Flow cytometry for γH2AX in serum-starved cells with or without FBS; assay type: cell-based, human; details: 500 nM; 24 hours; 20% FBS
# Method: (§3) To detect DNA double strand breaks, cells were stained with a FITC-conjugated anti-γH2AX (S139) antibody (kit 17-344, Millipore, Billerica, Mass.) after having been fixed overnight in ice-cold 70% ethanol Propidium iodide (PI)/RNase solution (BD Biosciences, Franklin Lakes, N.J.) was used to detect total DNA content. For studies interrogating premature mitosis, an anti-pHH3-Alexa 647 antibody (BD Biosciences 558217) was added. For synchronization studies, cells were incubated in serum-free medium for 36 hours, followed by replenishment with 20% FBS. One hour prior to each harvest, cells were pulsed with 10 μM bromodeoxyuridine (BrdU). Cells were fixed and stained for BrdU and DNA content with an anti-BrdU FITC-conjugated antibody and 7-aminoactinomycin-D (7-AAD) dye, respectively, according to the instructions in the BD Pharmingen™ FITC BrdU Flow Kit (BD Biosciences, Franklin Lakes, N.J.). All cytometry data were collected on the BD LSR II flow cytometer using the BD FACS Diva™ software (BD Biosciences, Franklin Lakes, N.J.), and the results were analyzed in FlowJo version 7.5.
# [10] = twice daily (BID) dosing
# Excerpt: (§4) CD-1 Nu/Nu female mice aged 5-6 weeks were obtained from Charles River Laboratories (Wilmington, Del.) and housed in Applicants animal care facility at standard laboratory conditions and fed 2018S autoclaveable diet (Harlan Laboratories, Indianapolis, Ind.) and water ad libitum. The protocol was approved by Applicants' in-house animal care and use committee. Mice were inoculated with cells (1:1 Matrigel:PBS) subcutaneously (SC) into the right flank. […] Tumor volume and body weights were recorded bi-weekly.
# [11] = tested on: ES-2 cells; test: Cell synchronization study, S-phase population (BrdU); assay type: cell-based, human
# Method: For synchronization studies, cells were incubated in serum-free medium for 36 hours, followed by replenishment with 20% FBS. One hour prior to each harvest, cells were pulsed with 10 μM bromodeoxyuridine (BrdU). Cells were fixed and stained for BrdU and DNA content with an anti-BrdU FITC-conjugated antibody and 7-aminoactinomycin-D (7-AAD) dye, respectively, according to the instructions in the BD Pharmingen™ FITC BrdU Flow Kit (BD Biosciences, Franklin Lakes, N.J.). All cytometry data were collected on the BD LSR II flow cytometer using the BD FACS Diva™ software (BD Biosciences, Franklin Lakes, N.J.), and the results were analyzed in FlowJo version 7.5.
# [12] = tested on: LoVo colorectal tumor model; test: In vivo efficacy, xenograft; design: species or system mice; details: single agent, 60 mg/kg BID; treatment stopped on day 13
# Excerpt: as §4
# [13] = tested on: A431 epidermoid tumor model; test: In vivo efficacy, xenograft; design: species or system mice; details: single agent
# Excerpt: as §4
# [14] = tested on: NCI-H2122 NSCLC model; test: In vivo efficacy, xenograft; design: species or system mice; details: single agent
# Excerpt: as §4
# [15] = tested on: SK-MES-1 NSCLC model; test: In vivo efficacy, xenograft; design: species or system mice; details: single agent, 60 mg/kg BID
# Excerpt: as §4
# [16] = tested on: A427 xenograft; test: In vivo efficacy, xenograft; design: species or system mice; details: 60 mg/kg BID, 28 days
# Excerpt: as §4
# [17] = tested on: TOV21G ovarian cancer cells; test: Flow cytometry for DNA double strand breaks (γH2AX) and BrdU uptake; assay type: cell-based, human; details: 150 nM
# Method: as §3
# [18] = tested on: 522 cancer cell lines; test: Cellular proliferation assay screen (CellTiter-Glo, 96 hours); assay type: cell-based, human; details: for EC50: Homo sapiens, 96 h
# Method: (§5) All cancer cell lines were grown in medium recommended by the cell line vendor (ATCC). Tissue culture media, serum, and supplements were purchased from Sigma-Aldrich® (St. Louis, Mo.). For the proliferation assay screen (FIG. 1), cells were plated in 384-well tissue culture plates and grown under compound or vehicle treatment. After 96 hours, CellTiter-Glo (Promega, Madison, Wis.) was used according to the manufacturer's protocol to approximate cell content. Samples were run in triplicate and growth was calculated as the CellTiter-Glo raw value of treated samples relative to vehicle-treated control wells.
# [19] = tested on: pCDK1^T14; test: Western blot, CDK1 T14 phosphorylation; assay type: cell-based, human; details: six cell lines, possible exception of A427; 2 hours
# Excerpt: (§6) Cells were lysed in mammalian protein extraction reagent (MPER, Thermo Fisher 78505, Waltham, Mass.) and then subjected to SDS-PAGE and transferred onto nitrocellulose or PVDF membranes. Antibodies used for Western blotting are from the following sources: total CDK1, pCDK1^Y15, pCDK1^T14, pCHK1^S345, pStathmin^S38, pLaminA/C^S22, pCDK substrate motif, γH2AX, Cyclin A, and total PKMYT1 from Cell Signaling Technologies (Beverly, Mass.); actin-HRP from Santa Cruz Biotechnology (Santa Cruz, Calif.); secondary HRP-conjugated anti-mouse and rabbit antibodies from GE Healthcare (Waukesha, Wis.). Blots were exposed with SuperSignal West Femto chemiluminescent substrate (Thermo Fisher Pierce, Waltham, Mass.).
# [20] = tested on: neuroblastoma tumor cell lines; test: Cellular proliferation assay screen (CellTiter-Glo, 96 hours); assay type: cell-based; details: Homo sapiens, n=7
# Method: as §5
# [21] = tested on: colorectal cancer cell lines; test: as above; assay type: cell-based; details: Homo sapiens, n=66
# Method: as §5
# [22] = tested on: KNS62; test: Proliferation assay; assay type: cell-based; details: Homo sapiens, KNS-62
# Method: as §5
# [23] = tested on: ES-2; test: Proliferation assay; assay type: cell-based; details: Homo sapiens
# Method: as §5
# [24] = tested on: NCI-H460; test: Proliferation assay; assay type: cell-based; details: Homo sapiens
# Method: as §5
# [25] = tested on: A431; test: Proliferation assay; assay type: cell-based; details: Homo sapiens, A-431
# Method: as §5
# [26] = tested on: A427 non-small cell lung cancer cell line; test: Proliferation assay; assay type: cell-based; details: Homo sapiens, A-427
# Method: as §5
# [27] = tested on: pCDK1^Y15; test: Western blot, WEE1 substrate phosphorylation; assay type: cell-based, human; details: all six cell lines; 2 hours
# Excerpt: as §6
# [28] = tested on: pCHK1^S345; test: Western blot, DNA damage response marker; assay type: cell-based, human; details: 2 hours
# Excerpt: as §6
smiles,measurement,setting,value
"COc1cccc2c1C(=O)c1c(O)c3c(c(O)c1C2=O)C[C@@](O)(C(=O)CO)C[C@@H]3O[C@H]1C[C@H](N)[C@H](O)[C@H](C)O1 [doxorubicin, reference compound]",dose response curves in control (CT) versus PKMYT1 siRNA transfected cells,[1],identical dose response curves
same,dose response curves in control (CT) versus PKMYT1 siRNA transfected cells,[2],identical dose response curves
"N.N.O=C([O-])C1(C(=O)[O-])CCC1.[Pt+2] [carboplatin, reference compound]",dose response curves in control (CT) versus PKMYT1 siRNA transfected cells,[1],identical dose response curves
same,dose response curves in control (CT) versus PKMYT1 siRNA transfected cells,[2],identical dose response curves
"O=C(NOC[C@H](O)CO)c1ccc(F)c(F)c1Nc1ccc(I)cc1F [PD-0325901, reference compound]",dose response curves in control (CT) versus PKMYT1 siRNA transfected cells,[1],identical dose response curves
same,dose response curves in control (CT) versus PKMYT1 siRNA transfected cells,[2],identical dose response curves
"C=CCn1c(=O)c2cnc(Nc3ccc(N4CCN(C)CC4)cc3)nc2n1-c1cccc(C(C)(C)O)n1 [WEE1-1, 2-allyl-1-[6-(1-hydroxy-1-methylethyl)pyridin-2-yl]-6-{[4-(4-methylpiperazin-1-yl)phenyl]amino}-1,2-dihydro-3H-pyrazolo[3,4-d]pyrimidin-3-one]",percentage of pHH3 positive cells,[3],increased
same,percentage of pHH3 positive cells,[4],increased
same,mitotic (pHH3 positive) population with 4N DNA,[5],43%
same,mitotic (pHH3 positive) population with <4N DNA,[5],23%
same,H2AX-positive cell population,[6],27%
same,H2AX-positive cell population,[7],8%
same,H2AX-positive cell population,[8],59%
same,degree of DNA double strand breaks (γH2AX) under mitogen stimulation versus cells not restimulated,[9],appreciably larger
same,maximum tolerated dose (MTD),[10],60 mg per kg
same,maximal effect of treatment upon PKMYT1 depletion,[1],not affected
same,EC50,[1]; PKMYT1 knocked down,93 nM
same,EC50,[1]; non-targeting control siRNA,487 nM
same,maximal effect of treatment upon PKMYT1 depletion,[2],not affected
same,EC50,[2]; PKMYT1 knocked down,104 nM
same,EC50,[2]; non-targeting control siRNA,677 nM
same,change in the S-phase population by 8 hours,[11]; 500 nM with 20% FBS,no detectable change
same,peak S-phase population,[11]; 500 nM with 20% FBS after 36 hours serum withdrawal,about 50%
same,time of peak S-phase population post-FBS,"[11]; 500 nM with 20% FBS, vehicle peak at 12 to 14 hours",24 h
same,tumor regression,[12],13%
same,TGI,[13],88%
same,TGI,[14],64%
same,Tumor growth inhibition (TGI),[15],92%
same,final volumes of individual treated tumors versus initial volumes,[16]; all 10 tumors,smaller than their initial volumes
same,"regression, final volume as % of the initial mean tumor volume",[16]; n=10,approximately 50%
same,share of DNA damage detected in BrdU-positive cells,[17]; 2 hours,95%
same,share of DNA damage detected in BrdU-positive cells,[17]; 6 hours,92%
same,cells staining positive for γH2AX,"[17]; two hours of treatment, 1% to 2% in untreated growing cells",23%
same,response on an adjusted scale (cell lines that were killed),"[18]; 450 nM, 33 of 305 cell lines, 96-hour proliferation assay, 0.25 or less = cell death",< 0.25
same,EC50,"[18]; lower end of range, 2% (9/522) of cell lines",≤ 100 nM
same,EC50,"[18]; upper end of range, 19% (98/522) of cell lines",≥ 1000 nM
same,range of anti-proliferative EC50s,[18]; across cell lines screened,at least 10 fold
same,effect on pCDK1^T14,[19],did not observe a WEE1-1-dependent effect
same,EC50,[20]; read-out: EC50 range,120 to 450 nM
same,EC50,[20]; read-out: mean EC50,280 nM
same,EC50,[21]; read-out: EC50 range,≥ 170 nM
same,EC50,[21]; read-out: mean EC50,1160 nM
same,EC50,[22],487 nM
same,EC50,[23],256 nM
same,EC50,[24],535 nM
same,EC50,[25],170 nM
same,EC50,[26],116 nM
same,effect on pCDK1^Y15,[27],dose-dependent reduction
same,lowest concentration with evidence of increased pCHK1^S345,"[28]; ES-2, A2058, A431 and A427",50 nM
same,activation of the DDR (pCHK1^S345),"[28]; all six cell lines (ES-2, A2058, A431, A427, KNS62, NCI-H460)",dose-dependent activation of the DDR
